PubChem BioAssay AID1963981 (Molecular Pharmacology Branch, DTP, NCI, 2024)

Tested on: 354836-022-R-J1-PDC multicell spheroid viability
Test: Anticancer human tumor 354836-022-R-J1-PDC patient-derived head and neck squamous cell carcinoma cell line growth inhibition [PI3K]
Settings: for IC50: curve of first compound; for viability, T/C: stronger effect = lower value
Excerpt: Combinatorial screen of targeted agents with the PI3K inhibitors inavolisib, alpelisib, duvelisib, and copanlisib in multi-cell type tumor spheroids
A high-throughput screen of multi-cell type tumor spheroids was designed to identify active combinations of targeted small molecules and PI3K pathway inhibitors. Complex spheroids include a stromal component modeled by human endothelial cells (HUVEC) and fibroblasts modeled by human mesenchymal stem cells (MSCs). The concentration ranges selected for each drug and investigational agent were based upon clinically achievable concentrations if the clinical Cmax of the agent was known.
Compounds. The drugs and investigational agents: inavolisib (NSC800729), alpelisib (NSC765974), duvelisib (NSC772469), copanlisib (NSC816437), ipatasertib (NSC767898), afuresertib (NSC778305), talazoparib (NSC767125), sapanisertib (NSC764658), selumetinib (NSC741078), tovorafenib (DAY101, NSC766906), vemurafenib (NSC761431), ravoxertinib (NSC781343), sotorasib (NSC818433), MRTX1133 (NSC 836407), abemaciclib (NSC 768073), palbociclib (NSC758247), venetoclax (NSC 766270), SY5609 (NSC837396), enzalutamide (NSC755605), and darolutamide (NSC825331), were obtained from the National Cancer Institute (NCI) Developmental Therapeutics Program Chemical Repository. The FDA-approved anticancer drug set is available from the NCI Developmental Therapeutics Program. […] The stock solutions were prepared in dimethyl sulfoxide (DMSO, Sigma-Aldrich, St. Louis, MO, cat. D2650) at 800-fold the tested concentration and stored at -70 degrees C prior to their use. All drugs and investigational agents were tested over a range starting from a high concentration at or near the clinical Cmax and decreasing in half-log increments. If the clinical Cmax for an agent had not been determined, the highest concentration tested was 10 microM.
Cell Culture. All cells were maintained in an incubator at 37 degrees C and 5% CO2 with 95% humidity. The PDC lines were cultured according to standard operating procedures established by the NCI PDMR (https://pdmr.cancer.gov/sops/default.htm). All PDCs were thawed and cultured in Matrigel-coated flasks prepared with a working solution of 1X Ham's F-12 nutrient mix, without supplementation (Invitrogen, Waltham, MA, cat. 11765054), 100 U/mL penicillin-streptomycin (Invitrogen, cat. 15140122), and 2.5% Matrigel (Corning Inc., Corning, NY, cat. 354248) for the first three passages. The 354836-022-R-J1-PDC, 475296-252-R-J1-PDC, and 997726-040-R-J2-PDC lines were cultured in 6A media, which includes advanced DMEM/F-12 (Thermo Fisher Scientific, cat. 12634028), 10 mM HEPES (Thermo Fisher Scientific, cat. 15630080), 1X GlutaMAX supplement (Thermo Fisher Scientific, cat. 35050061), 0.1 mg/mL primocin (InvivoGen, San Diego, CA, cat. ant-pm-2), 10% defined fetal bovine serum, heat inactivated (HyClone Laboratories Inc., Logan, UT, cat. SH30070.03HI), 50% L-WRN conditioned media (ATCC, cat. CRL-3276), 1.25 mM N-Acetyl-L-cysteine (Sigma-Aldrich, cat. A9165), 10 mM nicotinamide (Sigma-Aldrich, cat. N0636), 1X B-27 supplement (Thermo Fisher Scientific, cat. 17504044), 1X N-2 supplement (Thermo Fisher Scientific, cat. 17502048), and 10 microM Y-27632 dihydrochloride (Tocris Bioscience, Bristol, United Kingdom, cat. 1254). The 624824-186-R-J2-PDC line was cultured in 6C/Colon 1B media, which includes all 6A media components plus 50 ng/mL human EGF recombinant protein (Thermo Fisher Scientific, cat. PHG0311). […]

[1] = second compound 0.00316 µM, first compound 0.0316 µM
[2] = second compound 0.00316 µM, first compound 0.1 µM
[3] = second compound 0.00316 µM, first compound 0.316 µM
[4] = second compound 0.00316 µM, first compound 1 µM
[5] = second compound 0.00316 µM, first compound 3.16 µM
[6] = second compound 0.00316 µM, first compound 10 µM
[7] = second compound 0.01 µM, first compound 0.0316 µM
[8] = second compound 0.01 µM, first compound 0.1 µM
[9] = second compound 0.01 µM, first compound 0.316 µM
[10] = second compound 0.01 µM, first compound 1 µM
[11] = second compound 0.01 µM, first compound 3.16 µM
[12] = second compound 0.01 µM, first compound 10 µM
[13] = second compound 0.0316 µM, first compound 0.0316 µM
[14] = second compound 0.0316 µM, first compound 0.1 µM
[15] = second compound 0.0316 µM, first compound 0.316 µM
[16] = second compound 0.0316 µM, first compound 1 µM
[17] = second compound 0.0316 µM, first compound 3.16 µM
[18] = second compound 0.0316 µM, first compound 10 µM
[19] = second compound 0.1 µM, first compound 0.0316 µM
[20] = second compound 0.1 µM, first compound 0.1 µM
[21] = second compound 0.1 µM, first compound 0.316 µM
[22] = second compound 0.1 µM, first compound 1 µM
[23] = second compound 0.1 µM, first compound 3.16 µM
[24] = second compound 0.1 µM, first compound 10 µM
[25] = second compound 0.316 µM, first compound 0.0316 µM
[26] = second compound 0.316 µM, first compound 0.1 µM
[27] = second compound 0.316 µM, first compound 0.316 µM
[28] = second compound 0.316 µM, first compound 1 µM
[29] = second compound 0.316 µM, first compound 3.16 µM
[30] = second compound 0.316 µM, first compound 10 µM
[31] = second compound 1 µM, first compound 0.0316 µM
[32] = second compound 1 µM, first compound 0.1 µM
[33] = second compound 1 µM, first compound 0.316 µM
[34] = second compound 1 µM, first compound 1 µM
[35] = second compound 1 µM, first compound 3.16 µM
[36] = second compound 1 µM, first compound 10 µM
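Note: spheroids exposed to agents for seven days before the viability read.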

`CC1(C)CCC(CN2CCN(c3ccc(C(=O)NS(=O)(=O)c4ccc(NCC5CCOCC5)c([N+](=O)[O-])c4)c(Oc4cnc5[nH]ccc5c4)c3)CC2)=C(c2ccc(Cl)cc2)C1` + CC(Nc1ccc2c(c1)OCCn1cc(N3C(=O)OCC3C(F)F)nc1-2)C(N)=O gave an IC50 (second compound 0.00316 µM) of 4.39 µM, an IC50 (second compound 0.01 µM) of 4 µM and an IC50 (second compound 0.0316 µM) of 3.5 µM. It also gave an IC50 (second compound 0.1 µM) of 4.25 µM, an IC50 (second compound 0.316 µM) of 3.35 µM and an IC50 (second compound 1 µM) of 2.32 µM. For the same molecule, the viability, T/C [1] was 96.5%, the viability, T/C [2] was 96.9% and the viability, T/C [3] was 87.7%. For the same molecule, the viability, T/C [4] was 70.5%, the viability, T/C [5] was 74.6% and the viability, T/C [6] was 8.4%. For the same molecule, the viability, T/C [7] was 106%, the viability, T/C [8] was 91% and the viability, T/C [9] was 95.2%. It also gave a viability, T/C [10] of 81.1%, a viability, T/C [11] of 62.8% and a viability, T/C [12] of 9.3%. It also gave a viability, T/C [13] of 89.1%, a viability, T/C [14] of 103% and a viability, T/C [15] of 92.3%. It also gave a viability, T/C [16] of 99.5%, a viability, T/C [17] of 54% and a viability, T/C [18] of 8.28%. It also gave a viability, T/C [19] of 81.4%, a viability, T/C [20] of 81.6% and a viability, T/C [21] of 94.2%. For the same molecule, the viability, T/C [22] was 85.5%, the viability, T/C [23] was 63.4% and the viability, T/C [24] was 11.4%. For the same molecule, the viability, T/C [25] was 71%, the viability, T/C [26] was 69.2% and the viability, T/C [27] was 72.8%. For the same molecule, the viability, T/C [28] was 69.8%, the viability, T/C [29] was 52% and the viability, T/C [30] was 10.8%. For the same molecule, the viability, T/C [31] was 62%, the viability, T/C [32] was 56.2% and the viability, T/C [33] was 50.2%. For the same molecule, the viability, T/C [34] was 64.7%, the viability, T/C [35] was 47% and the viability, T/C [36] was 10.2%.
Molecule `C[C@@H](NC(=O)c1ncnc(N)c1Cl)c1ncc(C(=O)Nc2cc(C(F)(F)F)c(Cl)cn2)s1` + CC(Nc1ccc2c(c1)OCCn1cc(N3C(=O)OCC3C(F)F)nc1-2)C(N)=O has an IC50 (second compound 0.00316 µM) greater than 10 µM, an IC50 (second compound 0.01 µM) greater than 10 µM and an IC50 (second compound 0.0316 µM) greater than 10 µM. For the same molecule, the IC50 (second compound 0.1 µM) was greater than 10 µM, the IC50 (second compound 0.316 µM) was greater than 10 µM and the IC50 (second compound 1 µM) was greater than 10 µM. For the same molecule, the viability, T/C [1] was 98.4%, the viability, T/C [2] was 92.4% and the viability, T/C [3] was 103%. The viability, T/C [4] was 109%, the viability, T/C [5] was 107% and the viability, T/C [6] was 67.5%. For the same molecule, the viability, T/C [7] was 108%, the viability, T/C [8] was 90.9% and the viability, T/C [9] was 91.4%. The viability, T/C [10] was 104%, the viability, T/C [11] was 110% and the viability, T/C [12] was 64.1%. The viability, T/C [13] was 92.1%, the viability, T/C [14] was 93.1% and the viability, T/C [15] was 102%. The viability, T/C [16] was 111%, the viability, T/C [17] was 103% and the viability, T/C [18] was 71.9%. For the same molecule, the viability, T/C [19] was 82.2%, the viability, T/C [20] was 93.8% and the viability, T/C [21] was 94.9%. For the same molecule, the viability, T/C [22] was 92.3%, the viability, T/C [23] was 88.5% and the viability, T/C [24] was 71.6%. The viability, T/C [25] was 74.4%, the viability, T/C [26] was 75.9% and the viability, T/C [27] was 82.9%. For the same molecule, the viability, T/C [28] was 84.6%, the viability, T/C [29] was 88.1% and the viability, T/C [30] was 58.1%. For the same molecule, the viability, T/C [31] was 63%, the viability, T/C [32] was 62.2% and the viability, T/C [33] was 62.9%. For the same molecule, the viability, T/C [34] was 65.2%, the viability, T/C [35] was 74.5% and the viability, T/C [36] was 53.6%.
`Cn1ncnc1[C@H]1c2n[nH]c(=O)c3cc(F)cc(c23)N[C@@H]1c1ccc(F)cc1` + CC(Nc1ccc2c(c1)OCCn1cc(N3C(=O)OCC3C(F)F)nc1-2)C(N)=O was tested, and the IC50 (second compound 0.00316 µM) was greater than 0.1 µM, the IC50 (second compound 0.01 µM) was greater than 0.1 µM and the IC50 (second compound 0.0316 µM) was greater than 0.1 µM. The IC50 (second compound 0.1 µM) was greater than 0.1 µM, the IC50 (second compound 0.316 µM) was greater than 0.1 µM and the IC50 (second compound 1 µM) was greater than 0.1 µM. For the same molecule, the viability, T/C (second compound 0.00316 µM, first compound 0.000316 µM) was 87.4%, the viability, T/C (second compound 0.00316 µM, first compound 0.001 µM) was 97.1% and the viability, T/C (second compound 0.00316 µM, first compound 0.00316 µM) was 91.6%. For the same molecule, the viability, T/C (second compound 0.00316 µM, first compound 0.01 µM) was 101%, the viability, T/C [1] was 120% and the viability, T/C [2] was 89.8%. It also gave a viability, T/C (second compound 0.01 µM, first compound 0.000316 µM) of 88.4%, a viability, T/C (second compound 0.01 µM, first compound 0.001 µM) of 83.4% and a viability, T/C (second compound 0.01 µM, first compound 0.00316 µM) of 105%. The viability, T/C (second compound 0.01 µM, first compound 0.01 µM) was 92.6%, the viability, T/C [7] was 88.3% and the viability, T/C [8] was 84.3%. It also gave a viability, T/C (second compound 0.0316 µM, first compound 0.000316 µM) of 83%, a viability, T/C (second compound 0.0316 µM, first compound 0.001 µM) of 89.8% and a viability, T/C (second compound 0.0316 µM, first compound 0.00316 µM) of 95%. For the same molecule, the viability, T/C (second compound 0.0316 µM, first compound 0.01 µM) was 111%, the viability, T/C [13] was 101% and the viability, T/C [14] was 75.5%. For the same molecule, the viability, T/C (second compound 0.1 µM, first compound 0.000316 µM) was 87%, the viability, T/C (second compound 0.1 µM, first compound 0.001 µM) was 104% and the viability, T/C (second compound 0.1 µM, first compound 0.00316 µM) was 89.9%. It also gave a viability, T/C (second compound 0.1 µM, first compound 0.01 µM) of 89.1%, a viability, T/C [19] of 97.8% and a viability, T/C [20] of 70.3%. It also gave a viability, T/C (second compound 0.316 µM, first compound 0.000316 µM) of 69.1%, a viability, T/C (second compound 0.316 µM, first compound 0.001 µM) of 81.8% and a viability, T/C (second compound 0.316 µM, first compound 0.00316 µM) of 74.7%. It also gave a viability, T/C (second compound 0.316 µM, first compound 0.01 µM) of 72.6%, a viability, T/C [25] of 78.8% and a viability, T/C [26] of 60.4%. For the same molecule, the viability, T/C (second compound 1 µM, first compound 0.000316 µM) was 58%, the viability, T/C (second compound 1 µM, first compound 0.001 µM) was 63% and the viability, T/C (second compound 1 µM, first compound 0.00316 µM) was 61.8%. The viability, T/C (second compound 1 µM, first compound 0.01 µM) was 56.8%, the viability, T/C [31] was 71.9% and the viability, T/C [32] was 53.4%.
